# Experimental data: publication PMC9437101, “Curcumin-based-fluorescent probes targeting ALDH1A3 as a promising tool for glioblastoma precision surgery and early diagnosis” (Communications Biology, 2022)
# Where “and” joins values, the source holds several entries; their conditions need not be identical. Equal entries are not always repeated.
# What was measured:
# Assay in all cases: LC-HRMS analysis of isoenzyme activity in presence of probe
# Assay type in all cases: biochemical
# [1] = biological target: T1, ALDH1A2 (Homo sapiens, UniProt O94788); conditions: 1 h incubation, LC-HRMS
# T1 construct: E. coli BL21 (DE3) were transformed with the full-length expression vector of each isoform; His-tag; made in house; host or cells: E. coli BL21 (DE3)
# T1 sequence (O94788 1-518): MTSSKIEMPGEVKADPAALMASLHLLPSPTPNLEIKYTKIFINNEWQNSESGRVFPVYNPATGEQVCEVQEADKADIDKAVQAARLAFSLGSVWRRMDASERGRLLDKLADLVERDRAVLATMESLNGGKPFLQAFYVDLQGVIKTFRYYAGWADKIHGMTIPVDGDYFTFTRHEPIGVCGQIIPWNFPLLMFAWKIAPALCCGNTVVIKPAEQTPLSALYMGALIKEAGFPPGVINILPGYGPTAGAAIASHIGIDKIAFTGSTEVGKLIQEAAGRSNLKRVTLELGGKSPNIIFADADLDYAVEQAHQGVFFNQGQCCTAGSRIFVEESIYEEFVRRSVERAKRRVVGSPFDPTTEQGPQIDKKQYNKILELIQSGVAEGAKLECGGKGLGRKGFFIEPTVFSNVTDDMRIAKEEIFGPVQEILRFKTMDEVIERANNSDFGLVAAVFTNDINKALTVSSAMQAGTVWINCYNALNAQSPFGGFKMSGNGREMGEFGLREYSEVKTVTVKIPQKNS
# Description: (§1) These analyses were carried out by using UPLC-HRMS procedure with Vanquish UPLC system coupled to a Thermo Scientific Q-Exactive Plus, operating in negative electrospray ionization mode. The chromatographic separation was carried out using a Phenomenex Synergi 4 µ Polar-RP 80 A (150 × 2 mm) equipped with a Phenomenex Polar-RP (4 mm × 2 mm) security guard column. The mobile phase consisted of A: acetonitrile 0.1% formic acid and B: 0.1% formic acid. We used a linear elution gradient, starting from 80% of A to 5% A in 3 min, 3 min at 5% A, an equilibration of 4 min for a total run time of 10.00 min, at 300 µl/min flow rate. The autosampler temperature was set at 15 °C, the injection volume was 5 µl and column was maintained at 40 °C. The heated electrospray ionization source was used, with a spray voltage of […], with a capillary temperature of 300 °C, a heater temperature of 350 °C, a sheat gas flow of 45 arbitrary units (AU), an auxiliary gas flow of 10 AU and a sweep gas flow of 0 AU. During the Parallel Reaction Monitoring acquisition in negative ion mode, the instrument operated at 17,500 resolution in presence of the inclusion list (m/z = 596.20384 and m/z = 612.19875 for Probe 10 and Probe 10-COOH respectively; m/z = 534.18819 and m/z = 506.156888 for Probe 11 and Probe 11-COOH respectively) with an automatic gain control target of 2 × 10^5 charges and a maximum injection time of 100 ms. Before injecting the samples, the blanks in the list were analyzed and every biological sample was analyzed in duplicate. The biological samples analyzed were as follow: (1) Enzymatic assay Buffer; (2) Enzymatic assay Buffer + NAD^+; (3) Enzymatic assay Buffer + Probe 10 or Probe 11; (4) Enzymatic assay Buffer + ALDH1A1; (5) Enzymatic assay Buffer + ALDH1A2; (6) Enzymatic assay Buffer + ALDH1A3; (7) Enzymatic assay Buffer + ALDH1A1 + Probe 10 or Probe 11; (8) Enzymatic assay Buffer + ALDH1A2 + Probe 10 or Probe 11; (9) Enzymatic assay Buffer + ALDH1A3 + Probe 10 or Probe 11. All samples were diluted 1:1 with ACN, then 1:100 in ACN-Water 1:1 prior the LC-HRMS analysis.
# [2] = biological target: T2, ALDH1A1 (Homo sapiens, UniProt P00352); conditions: 1 h incubation, LC-HRMS
# T2 construct: E. coli BL21 (DE3) were transformed with the full-length expression vector of each isoform; His-tag; made in house; host or cells: E. coli BL21 (DE3)
# T2 sequence (P00352 1-501): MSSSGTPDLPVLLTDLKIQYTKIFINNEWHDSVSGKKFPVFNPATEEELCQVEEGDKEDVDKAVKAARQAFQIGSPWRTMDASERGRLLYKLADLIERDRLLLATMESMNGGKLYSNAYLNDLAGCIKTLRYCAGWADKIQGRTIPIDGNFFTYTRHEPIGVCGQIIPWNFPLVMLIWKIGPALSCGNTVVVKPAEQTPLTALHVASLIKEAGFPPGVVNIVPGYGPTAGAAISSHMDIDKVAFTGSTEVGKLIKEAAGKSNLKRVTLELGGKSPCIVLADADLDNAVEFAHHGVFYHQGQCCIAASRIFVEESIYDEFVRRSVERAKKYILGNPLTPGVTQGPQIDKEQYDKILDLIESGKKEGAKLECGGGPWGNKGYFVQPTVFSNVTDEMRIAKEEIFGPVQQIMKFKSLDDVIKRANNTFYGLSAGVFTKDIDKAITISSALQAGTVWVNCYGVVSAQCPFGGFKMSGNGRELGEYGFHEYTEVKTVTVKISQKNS
# Description: as §1
# [3] = biological target: T3, ALDH1A3 (Homo sapiens, UniProt P47895); conditions: for oxidation of probe to carboxylic derivative / substrate behaviour: 1 h incubation, LC-HRMS
# T3 construct: E. coli BL21 (DE3) were transformed with the full-length expression vector of each isoform; His-tag; made in house; host or cells: E. coli BL21 (DE3)
# T3 sequence (P47895 1-512): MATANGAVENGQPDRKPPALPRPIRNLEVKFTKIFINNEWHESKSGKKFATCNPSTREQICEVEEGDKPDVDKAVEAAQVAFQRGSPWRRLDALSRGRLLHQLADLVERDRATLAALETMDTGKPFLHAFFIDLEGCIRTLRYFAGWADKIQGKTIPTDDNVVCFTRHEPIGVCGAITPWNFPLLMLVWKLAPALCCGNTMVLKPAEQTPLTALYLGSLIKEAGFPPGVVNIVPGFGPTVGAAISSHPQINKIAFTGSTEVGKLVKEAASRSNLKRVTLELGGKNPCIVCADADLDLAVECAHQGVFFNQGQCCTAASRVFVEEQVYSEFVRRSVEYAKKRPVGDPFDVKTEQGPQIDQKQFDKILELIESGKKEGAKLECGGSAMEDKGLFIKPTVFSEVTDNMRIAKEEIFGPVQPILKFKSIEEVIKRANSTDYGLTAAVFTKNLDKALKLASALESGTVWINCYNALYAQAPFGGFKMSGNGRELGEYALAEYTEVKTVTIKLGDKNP
# Description: as §1
SMILES,oxidation of probe to carboxylic derivative / substrate behaviour [1],oxidation of probe to carboxylic derivative / substrate behaviour [2],oxidation of probe to carboxylic derivative / substrate behaviour [3],"AREA TIC of Probe 10 ([3]; ALDH1A3, 1 h)"
COc1cc(/C=C/C(O)=C/C(=O)/C=C/c2ccc(OCc3cn(CCOc4ccc(C=O)cc4)nn3)c(OC)c2)ccc1O [Probe 10],in part,fully metabolized,no oxidation could be detected,17952906 and 17991269 and 13247597 and 14014206
CCOC(=O)Cn1cc(COc2ccc(/C=C/C(=O)/C=C(O)/C=C/c3ccc(O)c(OC)c3)cc2OC)nn1 [Probe 11],has not been shown to be a substrate,has not been shown to be a substrate,has not been shown to be a substrate,–
